Where two headings read alike, the source gives them in different places.
Legend:
[1] = tested on: HMPV clinical isolate TN/1501/A1; assay: HMPV antiviral assay Method-B (clinical isolate TN/1501/A1 in LLC-MK2 cells, ATP-Lite readout); format: cell-based, Human metapneumovirus (HMPV); conditions: hMPV WT1501 (clinical isolate TN/1501/A1), 6 days
Procedure, shortened: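 LLC-MK2 cells infected in suspension with TN/1501/A1 at MOI 0.014 in serum-free medium with 2 μg/mL TPCK-trypsin (final), incubated 6 days at 37° C. Compounds tested in duplicate, 10-point 3-fold dilutions from 10 μM. Cell health read by ATP-Lite luminescence, normalised to virus-only and cells-only controls; EC50 by four-parameter logistic fit.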

[2] = tested on: genotype A, "Long" strain RSV; assay: RSV-A assay (CPE protection in Hep-2 cells, ATPlite readout); format: cell-based, Human respiratory syncytial virus (HRSV); conditions: RSV-A Long strain, MOI 0.1, CPE protection, read-out: Human RSV-A (“Long”) EC50
Procedure, shortened: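 Protection from RSV-induced cytopathic effect measured by ATP content (ATPlite) after 5-day culture. Infection used genotype A Long virus at MOI 0.1 on 8,000 Hep-2 cells per well, with compound serially diluted 2-fold; values are EC50.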

[3] = human metapneumovirus, LLC-MK2, 144 h
[4] = human respiratory syncytial virus

SMILES	EC50 [1, 3]	EC50 [2, 4]	EC50 [1]	EC50 [2]
COc1cc(C(=O)NCC(O)(c2cc3c(c(-c4ccc5ccn(C(F)F)c5c4)n2)OCC3(C)C(N)=O)C(F)(F)F)cc2cn(C3CC3)nc12 (stereo not shown) [Example 940]			> 500 nM	< 200 nM
COc1cc(-c2nc([C@@](O)(CNC(=O)c3cc(OC)c4nn(C5CC5)cc4c3)C(F)(F)F)cc3c2OC[C@]3(C)C(N)=O)cc2cn(C(F)F)nc12 [Example 942]	> 500 nM	> 200 nM		
COc1cc(C(=O)NC[C@](O)(c2cc3c(c(-c4csc5ccccc45)n2)OC[C@]3(C)C(N)=O)C(F)(F)F)cc2cn(C3CC3)nc12 [Example 943]	> 500 nM	< 200 nM		
COc1cc(C(=O)NC[C@](O)(c2cc3c(c(-c4csc5ccc(F)cc45)n2)OC[C@]3(C)C(N)=O)C(F)(F)F)cc2cn(C3CC3)nc12 [Example 944]	> 500 nM	< 200 nM		
COc1cc(C(=O)NC[C@](O)(c2cc3c(c(-c4csc(C(F)F)c4)n2)OC[C@]3(C)C(N)=O)C(F)(F)F)cc2cn(C3CC3)nc12 [Example 945]	> 500 nM	< 200 nM		
COc1cc(C(=O)NC[C@](O)(c2cc3c(c(-c4cc(C(F)F)cs4)n2)OC[C@]3(C)C(N)=O)C(F)(F)F)cc2cn(C3CC3)nc12 [Example 947]	> 500 nM	< 200 nM		
COc1cc(C(=O)NC[C@](O)(c2cc3c(c(-c4ccc(C(F)F)s4)n2)OC[C@]3(C)C(N)=O)C(F)(F)F)cc2cn(C3CC3)nc12 [Example 948]	> 500 nM	< 200 nM		
COc1cc(C(=O)NC[C@](O)(c2cc3c(c(-c4cnc(C(F)(F)F)s4)n2)OC[C@]3(C)C(N)=O)C(F)(F)F)cc2cn(C3CC3)nc12 [Example 950]	> 500 nM	< 200 nM		
COc1cc(C(=O)NC[C@@](O)(c2cc3c(c(-c4ccc5c(c4)OC(F)(F)C(F)(F)O5)n2)OC[C@]3(C)C(N)=O)C(F)(F)F)cc2cn(C3CC3)nc12 [Example 954]	> 500 nM	< 200 nM		
COc1cc(C(=O)NC[C@@](O)(c2cc3c(c(-c4ccc(F)c(Br)c4F)n2)OC[C@]3(C)C(N)=O)C(F)(F)F)cc2cn(C3CC3)nc12 [Example 955]	> 500 nM	< 200 nM		
COc1cc(C(=O)NC[C@](O)(c2cc3c(c(-c4ccc5ccccc5c4)n2)OC[C@]3(C)C(N)=O)C(F)(F)F)cc2cn(C3CC3)nc12 [Example 965]	> 500 nM	> 200 nM		
COc1cc(C(=O)NC[C@](O)(c2cc3c(c(-c4ccc5ncccc5c4)n2)OC[C@]3(C)C(N)=O)C(F)(F)F)cc2cn(C3CC3)nc12 [Example 966]	> 500 nM	> 200 nM		
COc1cc(C(=O)NC[C@](O)(c2cc3c(c(-c4ccc5nc(C)ccc5c4)n2)OC[C@]3(C)C(N)=O)C(F)(F)F)cc2cn(C3CC3)nc12 [Example 967]	> 500 nM	> 200 nM		
COc1cc(C(=O)NC[C@](O)(c2cc3c(c(-c4cccs4)n2)OC[C@]3(C)C(N)=O)C(F)(F)F)cc2cn(C3CC3)nc12 [Example 968]	> 500 nM	> 200 nM		
COc1cc(C(=O)NC[C@](O)(c2cc3c(c(-c4ccc5[nH]ccc5c4)n2)OC[C@]3(C)C(N)=O)C(F)(F)F)cc2cn(C3CC3)nc12 [Example 969]	> 500 nM	> 200 nM		
COc1cc(C(=O)NC[C@](O)(c2cc3c(c(-c4ccc5cc[nH]c5c4)n2)OC[C@]3(C)C(N)=O)C(F)(F)F)cc2cn(C3CC3)nc12 [Example 970]	> 500 nM	> 200 nM		
COc1cc(C(=O)NC[C@](O)(c2cc3c(c(-c4ccc5c(c4)CC(=O)N5)n2)OC[C@]3(C)C(N)=O)C(F)(F)F)cc2cn(C3CC3)nc12 [Example 971]	> 500 nM	> 200 nM		
COc1cc(C(=O)NC[C@](O)(c2cc3c(c(-c4ccc5c(c4)OCCO5)n2)OC[C@]3(C)C(N)=O)C(F)(F)F)cc2cn(C3CC3)nc12 [Example 973]	> 500 nM	> 200 nM		

Further lines, results first:

EC50 [1, 3]	EC50 [2, 4]	EC50 [1]	EC50 [2]	SMILES
> 500 nM	> 200 nM			COc1cc(C(=O)NC[C@@](O)(c2cc3c(c(-c4cccc(Cl)c4F)n2)OC[C@]3(C)C(N)=O)C(F)(F)F)cc2cn(C3CC3)nc12 [Example 921]
< 500 nM	< 200 nM			COc1cc(C(=O)NC[C@](O)(c2cc3c(c(-c4cccc(Cl)c4F)n2)OC[C@]3(C)C(N)=O)C(F)(F)F)cc2cn(C3CC3)nc12 [Example 922]
> 500 nM	> 200 nM			COc1ccc(-c2nc([C@](O)(CNC(=O)c3cc(OC)c4nn(C5CC5)cc4c3)C(F)(F)F)cc3c2OC[C@]3(C)C(N)=O)cc1 [Example 923]
> 500 nM	< 200 nM			COc1ccc(-c2nc([C@@](O)(CNC(=O)c3cc(OC)c4nn(C5CC5)cc4c3)C(F)(F)F)cc3c2OC[C@]3(C)C(N)=O)cc1 [Example 924]
> 500 nM	< 200 nM			COc1cc(C(=O)NC[C@@](O)(c2cc3c(c(-c4ccc(OC(F)F)cc4)n2)OC[C@]3(C)C(N)=O)C(F)(F)F)cc2cn(C3CC3)nc12 [Example 925]
> 500 nM	< 200 nM			COc1cc(C(=O)NC[C@](O)(c2cc3c(c(-c4ccc(OC(F)F)cc4)n2)OC[C@]3(C)C(N)=O)C(F)(F)F)cc2cn(C3CC3)nc12 [Example 926]
> 500 nM	< 200 nM			COc1cc(C(=O)NCC(O)(c2cc3c(c(-c4ccc(OC(F)(F)F)c(F)c4)n2)OC[C@]3(C)C(N)=O)C(F)(F)F)cc2cn(C3CC3)nc12 (stereo partly shown) [Example 927]
> 500 nM	< 200 nM			COc1cc(C(=O)NC[C@](O)(c2cc3c(c(-c4cccc5c4OC(F)(F)O5)n2)OC[C@]3(C)C(N)=O)C(F)(F)F)cc2cn(C3CC3)nc12 [Example 928]
< 500 nM	< 200 nM			COc1cc(C(=O)NC[C@](O)(c2cc3c(c(-c4ccc(Cl)c(F)c4F)n2)OC[C@]3(C)C(N)=O)C(F)(F)F)cc2cn(C3CC3)nc12 [Example 929]
< 500 nM	< 200 nM			COc1cc(C(=O)NC[C@](O)(c2cc3c(c(-c4ccc(F)c(Cl)c4F)n2)OC[C@]3(C)C(N)=O)C(F)(F)F)cc2cn(C3CC3)nc12 [Example 930]
< 500 nM	< 200 nM			COc1cc(C(=O)NCC(O)(c2cc3c(c(-c4cc(F)c(F)c(Cl)c4)n2)OC[C@]3(C)C(N)=O)C(F)(F)F)cc2cn(C3CC3)nc12 (stereo partly shown) [Example 931]
< 500 nM	< 200 nM			COc1cc(C(=O)NC[C@](O)(c2cc3c(c(-c4cc(F)c(Cl)cc4F)n2)OC[C@]3(C)C(N)=O)C(F)(F)F)cc2cn(C3CC3)nc12 [Example 932]
> 500 nM	< 200 nM			COc1ccc(-c2nc([C@@](O)(CNC(=O)c3cc(OC)c4nn(C5CC5)cc4c3)C(F)(F)F)cc3c2OC[C@]3(C)C(N)=O)cc1Cl [Example 933]
> 500 nM	< 200 nM			COc1cc(-c2nc([C@@](O)(CNC(=O)c3cc(OC)c4nn(C5CC5)cc4c3)C(F)(F)F)cc3c2OC[C@]3(C)C(N)=O)ccc1Cl [Example 934]
> 500 nM	< 200 nM			COc1cc(C(=O)NC[C@](O)(c2cc3c(c(-c4ccc(Cl)c(Cl)c4)n2)OC[C@]3(C)C(N)=O)C(F)(F)F)cc2cn(C3CC3)nc12 [Example 935]
< 500 nM	< 200 nM			COc1cc(C(=O)NC[C@](O)(c2cc3c(c(-c4csc5c(F)cccc45)n2)OC[C@]3(C)C(N)=O)C(F)(F)F)cc2cn(C3CC3)nc12 [Example 936]
> 500 nM	> 200 nM			COc1cc(C(=O)NC[C@](O)(c2cc3c(c(-c4csc5c(Cl)cccc45)n2)OC[C@]3(C)C(N)=O)C(F)(F)F)cc2cn(C3CC3)nc12 [Example 937]
> 500 nM	> 200 nM			COc1cc(C(=O)NC[C@](O)(c2cc3c(c(-c4ccc5nn(C(F)F)cc5c4)n2)OC[C@]3(C)C(N)=O)C(F)(F)F)cc2cn(C3CC3)nc12 [Example 938]
> 500 nM	< 200 nM			COc1cc(C(=O)NC[C@](O)(c2cc3c(c(-c4ccc5c(ccn5C(F)F)c4)n2)OC[C@]3(C)C(N)=O)C(F)(F)F)cc2cn(C3CC3)nc12 [Example 939]
> 500 nM	> 200 nM			COc1cc(C(=O)NC[C@](O)(c2cc3c(c(-c4ccc5cn(C(F)F)nc5c4)n2)OC[C@]3(C)C(N)=O)C(F)(F)F)cc2cn(C3CC3)nc12 [Example 941]
< 500 nM	< 200 nM			COc1cc(C(=O)NC[C@](O)(c2cc3c(c(-c4csc(C(F)(F)F)c4)n2)OC[C@]3(C)C(N)=O)C(F)(F)F)cc2cn(C3CC3)nc12 [Example 946]
< 500 nM	< 200 nM			COc1cc(C(=O)NC[C@](O)(c2cc3c(c(-c4csc(C(F)(F)F)n4)n2)OC[C@]3(C)C(N)=O)C(F)(F)F)cc2cn(C3CC3)nc12 [Example 951]
< 500 nM	< 200 nM			COc1cc(C(=O)NC[C@](O)(c2cc3c(c(-c4cc(Cl)c(F)cc4F)n2)OC[C@]3(C)C(N)=O)C(F)(F)F)cc2cn(C3CC3)nc12 [Example 952]
< 500 nM	< 200 nM			COc1cc(C(=O)NC[C@](O)(c2cc3c(c(-c4ccc(F)c(Br)c4F)n2)OC[C@]3(C)C(N)=O)C(F)(F)F)cc2cn(C3CC3)nc12 [Example 956]
< 500 nM	< 200 nM			COc1cc(C(=O)NC[C@](O)(c2cc3c(c(-c4c(F)cc(Cl)cc4F)n2)OC[C@]3(C)C(N)=O)C(F)(F)F)cc2cn(C3CC3)nc12 [Example 961]
< 500 nM	< 200 nM			COc1cc(C(=O)NC[C@](O)(c2cc3c(c(-c4ccc(Cl)c(C(F)(F)F)c4)n2)OC[C@]3(C)C(N)=O)C(F)(F)F)cc2cn(C3CC3)nc12 [Example 972]
